{"source": "patent US20160039852A1", "about": "“THERAPEUTIC USES OF BISPHOSPHONATES” (THE UNIVERSITY OF SHEFFIELD, priority 2013, published 2016)", "key": {"[1]": {"system": "human mesenchymal stem cells (hMSC)", "experiment": "hMSC growth kinetics, cumulative population doublings with time in culture", "type": "cell-based"}, "mTOR pathway": {"system": "mTOR pathway", "experiment": "Western blot of mTOR pathway effectors in osteosarcoma line MG63", "type": "cell-based, human", "conditions": "MG63, Zol (1 μM) for 72 h, n=3", "description": "(B) A representative example of human mesenchymal stem cells (MSC) and human osteosarcoma cell line MG63 cultured in presence or absence of Zol (1 μM) for 72 h and assessed for the expression of phosphorylated (Ser 473) AKT, AKT, phosphorylated p70S6K p70S6K and GAPDH by western blot;\nProtein lysates (50 μg) were diluted in equal volume of 2× Laemmli buffer (Gibco) containing Dithiothreitol (DTT, Sigma,UK). The samples were heated at 95° C. for 5 minutes and loaded on a 12% Tris-glycine gel. After electro-blotting, membranes were blocked with 5% Bovine serum albumin (BSA) in 0.1% Tween 20 in PBS (PBS-T) for detection of glyceraldehyde-3-phosphate dehydrogenase (GAPDH) and 5% dry milk in PBS-T for detection of unprenylated RAP1A (Santacruz Biotechnology, Santa Cruz, USA). […] Detection was carried out using enhanced chemi-luminescence plus ECL reaction kit (GE Healthcare, Buckinghamshire, UK) and quantification of protein expression was carried out using image J software.\nTo test this, the inventors assessed the phosphorylation state of two effectors downstream of TORC1 and TORC2, p-P70S6K and pAKT (Ser473) respectively (FIG. 7A), in hMSC in presence or absence of Zol. […]"}, "unprenylated RAP1A": {"system": "unprenylated RAP1A", "experiment": "Unprenylation (unprenylated RAP1A) in murine tissues following treatment", "type": "in vivo, C57BL6/J mice", "conditions": "Zol 125 μg/kg, i.p., 3 days, n=6 mice/group", "description": "For in vivo murine experiments C57BL6/J mice aged 8-10 weeks were used. All animals were housed in a conventional, non- specific pathogen free (SPF), mouse facility at the Medical School, University of Sheffield. Mice were fed on a commercially prepared pelleted diet and given water ad libitum. A minimum of 6 mice were used in each experimental group. Depending on the experimental groups, mice were injected either with Zoledronate(single dose, 125 μg/kg) or PBS ip, and sacrificed for tissue collection 3 days after the injection. Snap-frozen tissues were lysed for protein extraction using a tissue homogenizer and mammalian cell lysis buffer containing phosphatase and protease inhibitors. Protein lysates were run on 12% Tris-glycine gels and assessed for unprenylated RAP1A detected by sc1482 antibody RAP1A (Santacruz, USA) at 1:1000 dilution and GAPDH at 1:10000 dilution as described earlier."}}, "note": "“Also recorded” adds a separate entry of the source."}
{"molecule": "O=P(O)(O)C(O)(Cn1ccnc1)P(=O)(O)O", "note": "[Zoledronate]", "values": [{"measurement": "population doublings after which cultures were still proliferating", "setting": "[1]; hMSC grown in presence of Zol (1 μM), PBS cultures senesced after 21-27 PDs, n=3", "result": "29-36 PDs"}, {"measurement": "ability of hMSC to proliferate and differentiate following irradiation", "setting": "[1]; irradiated at 3 Gy, Zol for 3 days, washed off 12 h later", "result": "rescues hMSCs ability to proliferate and differentiate"}, {"measurement": "hMSC life span / time of proliferation in culture", "setting": "[1]; versus PBS control, listed as Zol", "result": "extension of life span; also recorded: proliferated for a longer time than control cells"}, {"measurement": "p-P70S6K", "setting": "mTOR pathway", "result": "no significant difference"}, {"measurement": "pAKT (Ser473)", "setting": "mTOR pathway", "result": "no significant difference"}, {"measurement": "levels of Rap1A unprenylation in murine tissues", "setting": "unprenylated RAP1A", "result": "increased levels of Rap1A unprenylation"}]}
